These compounds were tested against T1, human cloned dopamine D4.2 receptors (Homo sapiens, UniProt P21917, DEL265-296) (assay: Inhibition of the binding of [3H]YM-09151-2 to human dopamine D4 receptors). Conditions: 50 nM compound; [3H]YM-09151-2 0.06 nM; membranes of CHO-cells.
T1 construct: expressed in transfected cells; host or cells: CHO cells
T1 sequence (P21917 with tags, fused parts or gaps DEL265-296): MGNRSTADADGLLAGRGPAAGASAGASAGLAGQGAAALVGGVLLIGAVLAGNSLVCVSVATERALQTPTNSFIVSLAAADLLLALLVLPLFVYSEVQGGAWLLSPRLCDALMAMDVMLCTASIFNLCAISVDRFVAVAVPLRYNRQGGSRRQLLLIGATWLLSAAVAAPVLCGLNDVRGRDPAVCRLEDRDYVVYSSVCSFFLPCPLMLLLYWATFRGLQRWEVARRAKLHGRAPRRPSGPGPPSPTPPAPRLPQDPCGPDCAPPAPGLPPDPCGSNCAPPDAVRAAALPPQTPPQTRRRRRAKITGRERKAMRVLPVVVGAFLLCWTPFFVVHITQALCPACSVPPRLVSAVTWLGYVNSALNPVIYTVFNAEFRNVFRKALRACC
Description: Inhibition of the Binding of [^3H]YM-09151-2 to Human Dopamine D4 Receptors
By this method, the inhibition by drugs of the binding of [^3H]YM-09151-2 (0.06 nM) to membranes of human cloned dopamine D4.2 receptors expressed in CHO-cells is determined in vitro. The method is modified from NEN Life Science Products, Inc., technical data certificate PC2533-10/96.

inhibition at 0.05 µM | % inhibition of binding at 50 nM | Compound
48% |  | COc1ccc(C(=O)Nc2ccc(C)c(CCN3CCC(c4c[nH]c5c(Cl)cccc45)CC3)c2)cc1 [Compound 4f, 3-(1-{2-[5-(4-Methoxybenzoylamino)-2-methylphenyl]ethyl}piperidin-4-yl)-7-chloro-1H-indole]
97% |  | Cc1ccc(NC(=O)C(C)C)cc1CCN1CCC(c2c[nH]c3cc(Cl)ccc23)CC1 [Compound 3q, 3-(1-{2-[5-(Isobutanoylamino)-2-methylphenyl]ethyl}piperidin-4-yl)-6-chloro-1H-indole]
44% |  | Cc1ccc(NC(=O)c2ccc(F)cc2)cc1CCN1CCC(c2c[nH]c3c(Cl)cccc23)CC1 [Compound 4e, 3-(1-{2-[5-(4-Fluorobenzoylamino)-2-methylphenyl]ethyl}piperidin-4-yl)-7-chloro-1H-indole]
83% |  | CCCCCC(=O)Nc1ccc(C)c(CCN2CCC(c3c[nH]c4ccc(F)cc34)CC2)c1 [Compound 3h, 3-(1-{2-[5-(Hexanoylamino)-2-methylphenyl]ethyl}piperidin-4-yl)-5-fluoro-1H-indole]
89% |  | Cc1ccc(NC(=O)c2cccs2)cc1CCN1CCC(c2c[nH]c3ccc(F)cc23)CC1 [Compound 3e, 3-(1-{2-[2-Methyl-5-(thiophen-2-ylmethanoylamino)phenyl]ethyl}piperidin-4-yl)-5-fluoro-1H-indole]
73% |  | Cc1ccc(NC(=O)c2ccncc2)cc1CCN1CCC(c2c[nH]c3c(Cl)cccc23)CC1 [Compound 4h, 3-[1-(2-{2-Methyl-5-[(pyridin-4-ylmethanoyl)amino]phenyl}ethyl)piperidin-4-yl]-7-chloro-1H-indole]
99% |  | Cc1ccc(NC(=O)C2CC2)cc1CCN1CCC(c2c[nH]c3cc(Cl)ccc23)CC1 [Compound 3o, 3-(1-{2-[5-(Cyclopropylmethanoylamino)-2-methylphenyl]ethyl}piperidin-4-yl)-6-chloro-1H-indole]
83% |  | CC(=O)Nc1ccc(C)c(CCN2CCC(c3c[nH]c4ccc(F)cc34)CC2)c1 [Compound 3a, 3-(1-{2-[5-(Acetylamino)-2-methylphenyl]ethyl}piperidin-4-yl)-5-fluoro-1H-indole]
76% |  | Cc1ccc(NC(=O)N(C)c2ccccc2)cc1CCN1CCC(c2c[nH]c3cc(Cl)ccc23)CC1 [Compound 3n, 3-(1-{2-[2-Methyl-5-(3-Methyl-3-phenylureido)phenyl]ethyl}piperidin-4-yl)-6-chloro-1H-indole]
85% |  | Cc1ccc(NC(=O)c2cccs2)cc1CCN1CCC(c2c[nH]c3c(Cl)cccc23)CC1 [Compound 4i, 3-[1-(2-{2-Methyl-5-[(thiophen-2-ylmethanoyl)amino]phenyl}ethyl)piperidin-4-yl]-7-chloro-1H-indole]
 | 90% | Cc1ccc(NC(=O)N2CCOCC2)cc1CCN1CCC(c2c[nH]c3ccc(F)cc23)CC1 [Compound 3x, 3-(1-{2-[2-Methyl-5-(morfolin-4-ylmethanoylamino)phenyl]ethyl}piperidin-4-yl)-5-fluoro-1H-indole]
97% |  | Cc1ccc(NC(=O)CCC2CCCCC2)cc1CCN1CCC(c2c[nH]c3ccc(F)cc23)CC1 [Compound 3ac, 3-(1-{2-[5-(3-Cyclohexylpropanoylamino)-2-methylphenyl]ethyl}piperidin-4-yl)-5-fluoro-1H-indole]
91% |  | CCCCCC(=O)Nc1ccc(C)c(CCN2CCC(c3c[nH]c4c(Cl)cccc34)CC2)c1 [Compound 3z, 3-(1-{2-[5-(Hexanoylamino)-2-methylphenyl]ethyl}piperidin-4-yl)-7-chloro-1H-indole]
83% |  | Cc1ccc(NC(=O)Nc2ccc(F)cc2)cc1CCN1CCC(c2c[nH]c3ccc(F)cc23)CC1 [Compound 3y, 3-[1-(2-{5-[3-(4-Fluorophenyl)ureido]-2-methylphenyl}ethyl)piperidin-4-yl]-5-fluoro-1H-indole]
68% |  | COc1cccc(C(=O)Nc2ccc(C)c(CCN3CCC(c4c[nH]c5ccc(Cl)cc45)CC3)c2)c1 [Compound 3c, 3-(1-{2-[2-Methyl-5-(3-methoxybenzoylamino)phenyl]ethyl}piperidin-4-yl)-5-chloro-1H-indole]
48% |  | Cc1ccc(NC(=O)c2ccsc2)cc1CCN1CCC(c2c[nH]c3c(Cl)cccc23)CC1 [Compound 4j, 3-[1-(2-{2-Methyl-5-[(thiophen-3-ylmethanoyl)amino]phenyl}ethyl)piperidin-4-yl]-7-chloro-1H-indole]
86% |  | Cc1ccc(NC(=O)c2cccs2)cc1CCN1CCC(c2c[nH]c3ccc(Cl)cc23)CC1 [Compound 3b, 3-(1-{2-[2-Methyl-5-(thiophen-2-ylmethanoylamino)phenyl]ethyl}piperidin-4-yl)-5-chloro-1H-indole]
89% |  | Cc1ccc(NC(=O)Cc2ccccc2)cc1CCN1CCC(c2c[nH]c3c(Cl)cccc23)CC1 [Compound 3ae, 3-[1-(2-{5-[(2-Phenylethanoyl)amino]-2-methylphenyl}ethyl)piperidin-4-yl]-7-chloro-1H-indole]
48% |  | Cc1ccc(NC(=O)c2ccccc2)cc1CCN1CCC(c2c[nH]c3c(Cl)cccc23)CC1 [Compound 4d, 3-(1-{2-[5-(benzoylamino)-2-Methylphenyl]ethyl}piperidin-4-yl)-7-chloro-1H-indole]
 | 96% | 3-(1-{2-[5-(Isobutanolamino)-2-methylphenyl]ethyl}piperidin-4-yl)-5-fluoro-1H-indole [Compound 3f]
75% |  | COc1ccc(CC(=O)Nc2ccc(C)c(CCN3CCC(c4c[nH]c5cc(Cl)ccc45)CC3)c2)cc1 [Compound 3t, 3-[1-(2-{5-[2-(4-Methoxyphenyl)ethanoylamino]-2-methylphenyl}ethyl)piperidin-4-yl]-6-chloro-1H-indole]
89% |  | Cc1ccc(NC(=O)C2CC2)cc1CCN1CCC(c2c[nH]c3ccc(F)cc23)CC1 [Compound 3d, 3-(1-{2-[5-(Cyclopropylmethanoylamino)-2-methylphenyl]ethyl}piperidin-4-yl)-5-fluoro-1H-indole]
86% |  | Cc1ccc(NC(=O)C(C)(C)C)cc1CCN1CCC(c2c[nH]c3ccc(F)cc23)CC1 [Compound 3g, 3-(1-{2-[2-Methyl-5-(pivaloylamino)phenyl]ethyl}piperidin-4-yl)-5-fluoro-1H-indole]
92% |  | Cc1ccc(NC(=O)c2cccs2)cc1CCN1CCC(c2c[nH]c3cc(Cl)ccc23)CC1 [Compound 3p, 3-(1-{2-[2-Methyl-5-(thiophen-2-ylmethanoylamino)phenyl]ethyl}piperidin-4-yl)-6-chloro-1H-indole]
90% |  | Cc1ccc(C(=O)Nc2ccc(C)c(CCN3CCC(c4c[nH]c5c(Cl)cccc45)CC3)c2)cc1 [Compound 3af, 3-(1-{2-[2-Methyl-5-(4-methylbenzoylamino)phenyl]ethyl}piperidin-4-yl)-7-chloro-1H-indole]
95% |  | Cc1ccc(NC(=O)C2CC2)cc1CCN1CCC(c2c[nH]c3c(Cl)cccc23)CC1 [Compound 3ag, 3-(1-{2-[5-(Cyclopropylmethanoylamino)-2-methylphenyl]ethyl}piperidin-4-yl)-7-chloro-1H-indole]
